Reference: the supplement of paper PMC10307832

Experiments:
Assay in all cases: relative viability (nuclei count vs DMSO), 5 days (fraction); higher = more cells survive
[1] = compound: CCN1CCC(CC1)N2C=C(N=N2)CNC3=CC4=C(C(=CN=C4C(=C3)Cl)C#N)NC5=CC(=C(C=C5)F)Cl [KIN001-266] + CC1(C)CCC(c2ccc(Cl)cc2)=C(CN2CCN(c3ccc(C(=O)NS(=O)(=O)c4ccc(N[C@H](CCN5CCOCC5)CSc5ccccc5)c(S(=O)(=O)C(F)(F)F)c4)cc3)CC2)C1 [Navitoclax] (partner 0.5 µM)
How it was run: (§1)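 Lung cancer cell lines in 1536-well plates got either a single drug or a fixed anchor-drug dose together with five library-drug doses (not always all listed) in √10 steps, by pin tool, on the day after seeding. Nuclei were counted after 5 days, and relative viability is the treated-to-vehicle ratio of nuclei counts. Values are medians of duplicate plates.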

[2] = compound: CCN1CCC(CC1)N2C=C(N=N2)CNC3=CC4=C(C(=CN=C4C(=C3)Cl)C#N)NC5=CC(=C(C=C5)F)Cl [KIN001-266] + C[C@@H](Oc1cc(-c2cnn(C3CCNCC3)c2)cnc1N)c1c(Cl)ccc(F)c1Cl [Crizotinib] (partner 1 µM)
How it was run: as §1

[3] = compound: CCN1CCC(CC1)N2C=C(N=N2)CNC3=CC4=C(C(=CN=C4C(=C3)Cl)C#N)NC5=CC(=C(C=C5)F)Cl [KIN001-266] + Cc1nc(Nc2ncc(C(=O)Nc3c(C)cccc3Cl)s2)cc(N2CCN(CCO)CC2)n1 [Dasatinib] (partner 0.075 µM)
How it was run: as §1

[4] = compound: CCN1CCC(CC1)N2C=C(N=N2)CNC3=CC4=C(C(=CN=C4C(=C3)Cl)C#N)NC5=CC(=C(C=C5)F)Cl [KIN001-266] + O=C(CCCCCCC(=O)Nc1ccccc1)NO [Vorinostat] (partner 1 µM)
How it was run: as §1

Cell Line	relative viability ([1]; first compound 0.08 µM)	relative viability ([1]; first compound 0.253 µM)	relative viability ([1]; first compound 0.8 µM)	relative viability ([1]; first compound 2.53 µM)	relative viability ([1]; first compound 8 µM)	relative viability ([2]; first compound 0.08 µM)	relative viability ([2]; first compound 0.253 µM)	relative viability ([2]; first compound 0.8 µM)	relative viability ([2]; first compound 2.53 µM)	relative viability ([2]; first compound 8 µM)	relative viability ([3]; first compound 0.08 µM)	relative viability ([3]; first compound 0.253 µM)	relative viability ([3]; first compound 0.8 µM)	relative viability ([3]; first compound 2.53 µM)	relative viability ([3]; first compound 8 µM)	relative viability ([4]; first compound 0.08 µM)	relative viability ([4]; first compound 0.253 µM)	relative viability ([4]; first compound 0.8 µM)	relative viability ([4]; first compound 2.53 µM)	relative viability ([4]; first compound 8 µM)
LXF-289	0.957	0.952	0.929	0.952	0.925	0.819	0.801	0.77	0.826	0.76	0.24	0.193	0.232	0.261	0.203	0.752	0.79	0.734	0.814	0.884
PC-14	0.973	1.03	1.07	0.959	0.599	0.92	0.972	0.817	0.852	0.571	0.297	0.277		0.203	0.0481	0.627	0.803	0.158	0.577	0.0881
HOP-62	1.11	1.02	1.06	1.05	0.95	0.823	1.09	0.924	0.963	0.971	0.662	0.686	0.601	0.675	0.55	0.812	0.661	0.786	0.685	0.527
SK-MES-1	1.25	1.17	1.11	1.04	0.858	1.02	1.09	0.948	0.923	0.888	0.418	0.356	0.357	0.337	0.247	1.1	1.19	1.03	1.03	0.713
NCI-H1666	1.06	0.983	0.852	0.91	0.847	0.963	1.21	1.01	0.964	0.797	0.798	0.811	0.784	0.833	0.804	1.04	1.06	1.01	1.03	1
NCI-H1355	0.981	0.955	0.963	0.873	0.812	1.12	1.04	1.09	0.966	0.939	0.734	0.7	0.663	0.691	0.662	0.615	0.65	0.636	0.631	0.62
HCC-827	1.02	1.08		0.971	0.981	0.944	0.921		0.931	0.849	0.349	0.317		0.275	0.229	0.825	0.869	0.159	0.761	0.926
HARA	1.17	1.03	1.14	1.11	1.03	1.07	1.24	0.894	0.967	0.782	0.26	0.256	0.231	0.264	0.281	0.544	0.603	0.481	0.462	0.502
HCC-366	0.923	1.05	1.07	1.11	1.12	0.52	0.514	0.478	0.482	0.5	0.783	0.591	0.627	0.656	0.656	0.436	0.338	0.294	0.373	0.443
NCI-H322M	1.19	1.3	1.24	1.05	1.18	0.796	0.968	0.957	0.819	0.843	0.272	0.27	0.265	0.238	0.242	0.877	0.91	0.848	0.758	0.788
NCI-H2347	0.869	0.747	0.787	0.834	0.453	0.675	0.802	0.673	0.682	0.625	0.34	0.294	0.258	0.329	0.241	0.678	0.647	0.62	0.594	0.418
NCI-H1975	1.16	1.04	1.13	1.11	1.09	1.04	0.928	0.964	0.966	0.842	0.396	0.355	0.344	0.388	0.319	0.693	0.688	0.716	0.707	0.604
UMC-11	0.3	0.319	0.38	0.355	0.278	0.577	0.538	0.504	0.637	0.335	0.438	0.452	0.481	0.421	0.382	0.334	0.421	0.431	0.411	0.44
A-427	0.973	0.991	0.978	0.983	0.953	0.905	0.701	0.776	0.746	0.636	0.742	0.614	0.661	0.686	0.575	0.885	0.88	0.883	0.82	0.856
LCLC-97TM1	0.506	0.365	0.247	0.398	0.333	0.327	0.289	0.242	0.21	0.24	0.905	0.812	0.825	0.746	0.848	0.867	0.799	0.627		0.614
HCC-15	0.722	0.676	0.624	0.553	0.411	0.778	0.821	0.738	0.626	0.565	0.683	0.592	0.566	0.596	0.448	0.871	0.932	0.842	0.747	0.616
